{"source": "patent US8816085B2", "about": "(Takeda GmbH, priority 2009, dated 2014)", "data": [{"molecular_target": "T1, PDE5A1 (human PDE5 from platelets) (Homo sapiens, UniProt O76074)", "T1 construct": "from tissue; host or cells: platelets from fresh blood of human donors (10,000 g supernatant of sonified platelets)", "assay": "Inhibition of type 5 phosphodiesterase (PDE5) activity, modified SPA test", "assay_type": "biochemical", "conditions": "PDE5-containing human platelet lysate, 0.5 μM cGMP, value classes, read-out: PDE5A1 inhibitory values [measured as −logIC50 (mol/l)] (converted)", "method_in_brief": "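Enzyme source: human platelet lysate (10,000 g supernatant), with 1 μM motapizone and 10 nM PDE2 inhibitor present. SPA format in 20 mM Tris pH 7.4, 5 mM Mg2+, 0.5 μM cGMP with [3H]cGMP tracer; 5 min preincubation at 37 °C, 15 min reaction, stopped with IBMX-containing beads. IC50 by non-linear regression.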", "units": {"IC50": "nM"}, "values": [{"compound": "CCC(=O)N1C[C@@H](O)[C@H](NC(=O)c2c(C)[nH]c3c(-c4cc(OC)c(F)cc4OCC4CC4)ccnc23)C1", "note": "(relative stereo) [Example E71, 7-[2-(Cyclopropylmethoxy)-4-fluoro-5-methoxyphenyl]-N-[(3R*,4R*)-4-hydroxy-1-propanoylpyrrolidin-3-yl]-2-methyl-1H-pyrrolo[3,2-b]pyridine-3-carboxamide]", "IC50": "< 1"}, {"compound": "COc1ccc(OCC2CC2)c(-c2ccnc3c(C(=O)N[C@@H]4CN(C(C)=O)C[C@H]4O)c(C)[nH]c23)c1", "note": "(relative stereo) [Example E49, N-[(3R*,4R*)-1-Acetyl-4-hydroxypyrrolidin-3-yl]-7-[2-(cyclopropylmethoxy)-5-methoxyphenyl]-2-methyl-1H-pyrrolo[3,2-b]pyridine-3-carboxamide]", "IC50": "1 to 10"}, {"compound": "Cc1[nH]c2c(-c3ccc(F)cc3OCC3CC3)ccnc2c1C(=O)N[C@H]1CC[C@@H](NC(=O)[C@H](C)O)CC1", "note": "[Example F11, 7-[2-(Cyclopropylmethoxy)-4-fluorophenyl]-N-(cis-4-{[(2S)-2-hydroxypropanoyl]amino}cyclohexyl)-2-methyl-1H-pyrrolo[3,2-b]pyridine-3-carboxamide]", "IC50": "1 to 10"}, {"compound": "COc1cc(OCC2CC2)c(-c2ccnc3c(C(=O)N[C@H]4CC[C@H](NC(=O)CO)CC4)c(C)[nH]c23)cc1F", "note": "[Example F52, 7-[2-(Cyclopropylmethoxy)-5-fluoro-4-methoxyphenyl]-N-[trans-4-(glycoloylamino)cyclohexyl]-2-methyl-1H-pyrrolo[3,2-b]pyridine-3-carboxamide]", "IC50": "< 1"}, {"compound": "CCC(=O)N[C@H]1CC[C@H](NC(=O)c2c(C)[nH]c3c(-c4cc(OC)ccc4OCC4CC4)ccnc23)CC1", "note": "[Example E44, 7-[2-(Cyclopropylmethoxy)-5-methoxyphenyl]-2-methyl-N-[trans-4-(propanoylamino)cyclohexyl]-1H-pyrrolo[3,2-b]pyridine-3-carboxamide]", "IC50": "< 1"}, {"compound": "COCC(=O)N1CCC(NC(=O)c2c(C)[nH]c3c(-c4c(OCC5CC5)ccc5c4OCO5)ccnc23)CC1", "note": "[Example E03, 7-[5-(Cyclopropylmethoxy)-1,3-benzodioxol-4-yl]-N-[1-(methoxyacetyl)piperidin-4-yl]-2-methyl-1H-pyrrolo[3,2-b]pyridine-3-carboxamide]", "IC50": "< 1"}, {"compound": "Cc1ccc(OCC2CC2)c(-c2ccnc3c(C(=O)N[C@H]4CC[C@@H](NC(=O)CO)CC4)c(C)[nH]c23)c1", "note": "[Example F38, 7-[2-(Cyclopropylmethoxy)-5-methylphenyl]-N-{cis-4-[(hydroxyacetyl)amino]cyclohexyl}-2-methyl-1H-pyrrolo[3,2-b]pyridine-3-carboxamide]", "IC50": "1 to 10"}, {"compound": "COc1cc(OCC2CC2)c(-c2ccnc3c(C(=O)N[C@H]4CC[C@@H](NC(C)=O)CC4)c(C)[nH]c23)cc1F", "note": "[Example E82, N-(cis-4-Acetamidocyclohexyl)-7-[2-(cyclopropylmethoxy)-5-fluoro-4-methoxyphenyl]-2-methyl-1H-pyrrolo[3,2-b]pyridine-3-carboxamide]", "IC50": "< 1"}, {"compound": "CCC(=O)N[C@H]1CC[C@H](NC(=O)c2c(C)[nH]c3c(-c4ccc(OC)cc4OCC4CC4)ccnc23)CC1", "note": "[Example E35, 7-[2-(Cyclopropylmethoxy)-4-methoxyphenyl]-2-methyl-N-[trans-4-(propanoylamino)cyclohexyl]-1H-pyrrolo[3,2-b]pyridine-3-carboxamide]", "IC50": "< 1"}, {"compound": "Cc1[nH]c2c(-c3cc(F)ccc3OCC3CC3)ccnc2c1C(=O)N[C@H]1CC[C@@H](NC(=O)CO)CC1", "note": "[Example F16, 7-[2-(Cyclopropylmethoxy)-5-fluorophenyl]-N-{cis-4-[(hydroxyacetyl)amino]cyclohexyl}-2-methyl-1H-pyrrolo[3,2-b]pyridine-3-carboxamide]", "IC50": "1 to 10"}, {"compound": "COCC(=O)N[C@H]1CC[C@H](NC(=O)c2c(C)[nH]c3c(-c4cc(OC)ccc4OCC4CC4)ccnc23)CC1", "note": "[Example E45, 7-[2-(Cyclopropylmethoxy)-5-methoxyphenyl]-N-{trans-4-[(methoxyacetyl)amino]cyclohexyl}-2-methyl-1H-pyrrolo[3,2-b]pyridine-3-carboxamide]", "IC50": "< 1"}, {"compound": "CCC(=O)N1CCC(NC(=O)c2c(C)[nH]c3c(-c4ccc(OC)cc4OCC4CC4)ccnc23)CC1", "note": "[Example E32, 7-[2-(Cyclopropylmethoxy)-4-methoxyphenyl]-2-methyl-N-(1-propanoylpiperidin-4-yl)-1H-pyrrolo[3,2-b]pyridine-3-carboxamide]", "IC50": "< 1"}, {"compound": "COCC(=O)N[C@H]1CC[C@H](NC(=O)c2c(C)[nH]c3c(-c4cc(C)ccc4OCC4CC4)ccnc23)CC1", "note": "[Example E57, 7-[2-(Cyclopropylmethoxy)-5-methylphenyl]-N-{trans-4-[(methoxyacetyl)amino]cyclohexyl}-2-methyl-1H-pyrrolo[3,2-b]pyridine-3-carboxamide]", "IC50": "1 to 10"}, {"compound": "CCC(=O)N1CCC(NC(=O)c2c(C)[nH]c3c(-c4cc(F)ccc4OCC4CC4)ccnc23)CC1", "note": "[Example E20, 7-[2-(Cyclopropylmethoxy)-5-fluorophenyl]-2-methyl-N-(1-propanoylpiperidin-4-yl)-1H-pyrrolo[3,2-b]pyridine-3-carboxamide]", "IC50": "< 1"}, {"compound": "COc1cc(-c2ccnc3c(C(=O)N[C@@H]4CCN(C(C)=O)C[C@H]4O)c(C)[nH]c23)c(OCC2CC2)cc1F", "note": "(relative stereo) [Example E73, N-[(3R*,4R*)-1-Acetyl-3-hydroxypiperidin-4-yl]-7-[2-(cyclopropylmethoxy)-4-fluoro-5-methoxyphenyl]-2-methyl-1H-pyrrolo[3,2-b]pyridine-3-carboxamide]", "IC50": "< 1"}, {"compound": "COc1ccc(-c2ccnc3c(C(=O)NC4CCN(C(=O)[C@H](C)O)CC4)c(C)[nH]c23)c(OCC2CC2)c1", "note": "[Example F21, 7-[2-(Cyclopropylmethoxy)-4-methoxyphenyl]-N-{1-[(2S)-2-hydroxypropanoyl]piperidin-4-yl}-2-methyl-1H-pyrrolo[3,2-b]pyridine-3-carboxamide]", "IC50": "< 1"}, {"compound": "CC(=O)N[C@H]1CC[C@H](NC(=O)c2c(C)[nH]c3c(-c4ccc(F)cc4OCC4CC4)ccnc23)CC1", "note": "[Example E13, N-[trans-4-(Acetylamino)cyclohexyl]-7-[2-(cyclopropylmethoxy)-4-fluorophenyl]-2-methyl-1H-pyrrolo[3,2-b]pyridine-3-carboxamide]", "IC50": "< 1"}, {"compound": "CC(=O)N[C@H]1CC[C@@H](NC(=O)c2c(C)[nH]c3c(-c4ccc(F)cc4OCC4CC4)ccnc23)CC1", "note": "[Example E16, N-[cis-4-(Acetylamino)cyclohexyl]-7-[2-(cyclopropylmethoxy)-4-fluorophenyl]-2-methyl-1H-pyrrolo[3,2-b]pyridine-3-carboxamide]", "IC50": "1 to 10"}, {"compound": "COc1cc(-c2ccnc3c(C(=O)N[C@H]4CC[C@H](NC(=O)[C@H](C)O)CC4)c(C)[nH]c23)c(OCC2CC2)cc1F", "note": "[Example F43, 7-[2-(Cyclopropylmethoxy)-4-fluoro-5-methoxyphenyl]-N-(trans-4-{[(2S)-2-hydroxypropanoyl]amino}cyclohexyl)-2-methyl-1H-pyrrolo[3,2-b]pyridine-3-carboxamide]", "IC50": "< 1"}, {"compound": "COc1ccc(OCC2CC2)c(-c2ccnc3c(C(=O)NC4CCN(C(=O)CO)CC4)c(C)[nH]c23)c1", "note": "[Example F26, 7-[2-(Cyclopropylmethoxy)-5-methoxyphenyl]-N-[1-(hydroxyacetyl)piperidin-4-yl]-2-methyl-1H-pyrrolo[3,2-b]pyridine-3-carboxamide]", "IC50": "1 to 10"}, {"compound": "CCC(=O)N[C@H]1CC[C@H](NC(=O)c2c(C)[nH]c3c(-c4cc(F)c(OC)cc4OCC4CC4)ccnc23)CC1", "note": "[Example E80, 7-[2-(Cyclopropylmethoxy)-5-fluoro-4-methoxyphenyl]-2-methyl-N-[trans-4-(propionylamino)cyclohexyl]-1H-pyrrolo[3,2-b]pyridine-3-carboxamide]", "IC50": "< 1"}, {"compound": "COc1cc(-c2ccnc3c(C(=O)N[C@H]4CC[C@@H](NC(=O)[C@H](C)O)CC4)c(C)[nH]c23)c(OCC2CC2)cc1F", "note": "[Example F45, 7-[2-(Cyclopropylmethoxy)-4-fluoro-5-methoxyphenyl]-N-(cis-4-{[abs.(2S)-2-hydroxypropanoyl]amino}cyclohexyl)-2-methyl-1H-pyrrolo[3,2-b]pyridine-3-carboxamide]", "IC50": "< 1"}, {"compound": "Cc1[nH]c2c(-c3cc(F)ccc3OCC3CC3)ccnc2c1C(=O)NC1CCN(C(=O)CO)CC1", "note": "[Example F12, 7-[2-(Cyclopropylmethoxy)-5-fluorophenyl]-N-[1-(hydroxyacetyl)piperidin-4-yl]-2-methyl-1H-pyrrolo[3,2-b]pyridine-3-carboxamide]", "IC50": "1 to 10"}, {"compound": "CC(=O)N1CCC(NC(=O)c2c(C)[nH]c3c(-c4cc(F)ccc4OCC4CC4)ccnc23)CC1", "note": "[Example E19, N-(1-Acetylpiperidin-4-yl)-7-[2-(cyclopropylmethoxy)-5-fluorophenyl]-2-methyl-1H-pyrrolo[3,2-b]pyridine-3-carboxamide]", "IC50": "1 to 10"}, {"compound": "CCC(=O)N1CC[C@@H](NC(=O)c2c(C)[nH]c3c(-c4cc(F)ccc4OCC4CC4)ccnc23)[C@H](O)C1", "note": "(relative stereo) [Example E29, 7-[2-(Cyclopropylmethoxy)-5-fluorophenyl]-N-[(3R*,4R*)-3-hydroxy-1-propanoylpiperidin-4-yl]-2-methyl-1H-pyrrolo[3,2-b]pyridine-3-carboxamide]", "IC50": "1 to 10"}, {"compound": "CCC(=O)N1CCC(NC(=O)c2c(C)[nH]c3c(-c4cc(C)ccc4OCC4CC4)ccnc23)CC1", "note": "[Example E53, 7-[2-(Cyclopropylmethoxy)-5-methylphenyl]-2-methyl-N-(1-propanoylpiperidin-4-yl)-1H-pyrrolo[3,2-b]pyridine-3-carboxamide]", "IC50": "1 to 10"}, {"compound": "CCC(=O)N1CC[C@@H](NC(=O)c2c(C)[nH]c3c(-c4cc(OC)c(F)cc4OCC4CC4)ccnc23)[C@H](O)C1", "note": "(relative stereo) [Example E74, 7-[2-(Cyclopropylmethoxy)-4-fluoro-5-methoxyphenyl]-N-[(3R*,4R*)-3-hydroxy-1-propanoylpiperidin-4-yl]-2-methyl-1H-pyrrolo[3,2-b]pyridine-3-carboxamide]", "IC50": "< 1"}]}]}
